# Key:
# Type in all cases: cell-based
# [1] = test system: A549-L; assay: Cell-Titer-Glo cell proliferation; conditions: lung, 72 h
# Description: (§1) Exponentially growing cell lines of different tumor origins, cultured in appropriate media containing 10% fetal bovine serum at 37° C. in a 5% CO2 incubator were plated at low density (less than 2000 cells/well) in 96-well plates. Twenty four hours post-plating, cells were treated with different concentrations of compound ranging from 10 uM to 0.04 nM. Several wells were left untreated as a control. Seventy two hours post-treatment, cell numbers were determined using 50-100 ul per well of CellTiter-Glo (Promega #G7573). Plates were incubated at room temperature for 15 minutes and the chemiluminescent signal was read on the Victor V or Envison 2100 reader.
# (§2) Concentration of compound that inhibited 50% of cell growth (IC50) was determined by 4 parameter fit of data using XLfit, (value of no cell control was subtracted from all samples for background). The Cell-Titer Glo data are shown in Table 3 below and represent a compilation of several different experiments, each performed using the general parameters outlined above, although minor variations may have been employed in some instances.
# [2] = test system: ASPC3; assay: Cell-Titer-Glo cell proliferation; conditions: pancreas, 72 h
# Description: as §1, §2
# [3] = test system: BXPC3; assay: Cell-Titer-Glo cell proliferation; conditions: Homo sapiens, BXPC-3, pancreas, 72 h
# Description: as §1, §2
# [4] = test system: COLO205; assay: Cell-Titer-Glo cell proliferation; conditions: Homo sapiens, COLO 205, colon, 72 h
# Description: as §1, §2
# [5] = test system: H1299; assay: Cell-Titer-Glo cell proliferation; conditions: Homo sapiens, NCI-H1299, lung, 72 h
# Description: as §1, §2
# [6] = test system: HCT116; assay: Cell-Titer-Glo cell proliferation; conditions: Homo sapiens, HCT-116, colon, 72 h
# Description: as §1, §2
# [7] = test system: HN5; assay: Cell-Titer-Glo cell proliferation; conditions: Homo sapiens, head and neck, 72 h
# Description: as §1, §2
# [8] = test system: HT29; assay: Cell-Titer-Glo cell proliferation; conditions: Homo sapiens, HT-29, colon, 72 h
# Description: as §1, §2
# [9] = test system: Hela; assay: Cell-Titer-Glo cell proliferation; conditions: Homo sapiens, cervix, 72 h
# Description: as §1, §2
# [10] = test system: LNCaP; assay: Cell-Titer-Glo cell proliferation; conditions: Homo sapiens, prostate, 72 h
# Description: as §1, §2
# [11] = test system: MCF7; assay: Cell-Titer-Glo cell proliferation; conditions: Homo sapiens, breast, 72 h
# Description: as §1, §2
# [12] = test system: MDA-MB-468; assay: Cell-Titer-Glo cell proliferation; conditions: Homo sapiens, breast, 72 h
# Description: as §1, §2
# [13] = test system: MV522; assay: Cell-Titer-Glo cell proliferation; conditions: lung, 72 h
# Description: as §1, §2
# [14] = test system: MX-1; assay: Cell-Titer-Glo cell proliferation; conditions: Homo sapiens, MX1, breast, 72 h
# Description: as §1, §2
# [15] = test system: MiaPaca; assay: Cell-Titer-Glo cell proliferation; conditions: Homo sapiens, MIA PaCa-2, pancreas, 72 h
# Description: as §1, §2
# [16] = test system: P388; assay: Cell-Titer-Glo cell proliferation; conditions: Mus musculus, blood, 72 h
# Description: as §1, §2
# [17] = test system: PANC-1; assay: Cell-Titer-Glo cell proliferation; conditions: Homo sapiens, pancreas, 72 h
# Description: as §1, §2
# [18] = test system: SKOV-3; assay: Cell-Titer-Glo cell proliferation; conditions: Homo sapiens, SK-OV-3, ovary, 72 h
# Description: as §1, §2
# [19] = test system: glioma cell lines; assay: Washout assay, all cell lines together; conditions: all seven glioma cell lines of Table 5
# Description: Seven glioma cell lines that can double at least once over three days were thawed and grown to 70-80% confluency before being used in the assay. On day 1, for each cell line, 2-3×10^5 cells were seeded into each well in 6-well cell culture plates and incubated at 37° C. overnight. […] The plates were incubated at 37° C. for 3 days.
# On day 5, the compound was efficiently washed four times with culture medium supplemented with 20% fetal bovine serum (FBS) and then washed once in buffered saline solution (PBS). The cells were trypsinized. For each of the concentrations, compound-treated cell lines were plated into five 96-well plates at 5000 cells per well. For the next 4 consecutive days, one plate of the cells was taken out of the incubator and cell proliferation was measured by MTT ELISA assay.
# The washout assay is designed to follow the cells' recovery from exposure to the compound. Each glioma cell line was assayed at least twice. The criteria for evaluating sensitivity or resistance was Last Growth Back Concentration (LGC), if LGC<=30 nM, the cell line is considered sensitive; if LGC>=1 uM, it is considered resistant; if LGC is in between these two concentrations, the cell line is considered intermediate. Based on criteria set, all the glioma cell lines appeared to be sensitive to the compound of Example 1.
# [20] = test system: cancer cell lines; assay: Methylene Blue, Cell-Titre Glo Growth or Multiple Cell Line cellular proliferation assays
# Description: Generally, exponentially growing cell lines of different tumor origins, cultured in appropriate media containing 10% fetal bovine serum at 37° C. in a 5% CO2 incubator were plated at low density (less than 2000 cells/well) in 96-well plates. Twenty four hours post-plating, cells were treated with different concentrations of compound ranging from 10 uM to 0.04 nM. Several wells were left untreated as a control. Seventy two hours post-treatment, cell numbers were determined using 100 μl per well of methylene blue (Sigma M9140) (0.5% in 50:50 Ethanol:water). Stain was incubated at room temperature for 30 minutes before plates were rinsed and dye solubilized in 1% N-lauroyl sarcosine, sodium salt, (Sigma L5125, in PBS) (further details of a methylene blue assay are described below). Plates were read on a microplate reader, measuring the OD at 620 nm.
# as §1, with “Twenty four hours post-plating, cells were treated with different concentrations of compound ranging from 10 uM to 0.04 nM. Several wells were left untreated as a control.” left out, “reader. […]” for “reader.”
structure (smiles),measurement,setting,value
"C[C@@H](Oc1cc(-n2cnc3ccc(CN4CCN(C)CC4)cc32)sc1C(N)=O)c1ccccc1C(F)(F)F [Example 1, 5-{6-[(4-Methylpiperazin-1-yl)methyl]-1H-benzimidazol-1-yl}-3-{(1R)-1-[2-(trifluoromethyl)phenyl]ethoxy}thiophene-2-carboxamide]",IC50,[1],< 0.5 µM
same,IC50,[2],< 0.5 µM
same,IC50,[3],< 0.5 µM
same,IC50,[4],< 0.5 µM
same,IC50,[5],< 0.5 µM
same,IC50,[6],< 0.5 µM
same,IC50,[7],< 0.5 µM
same,IC50,[8],< 0.5 µM
same,IC50,[9],< 0.5 µM
same,IC50,[10],< 0.5 µM
same,IC50,[11],< 0.5 µM
same,IC50,[12],< 0.5 µM
same,IC50,[13],< 0.5 µM
same,IC50,[14],< 0.5 µM
same,IC50,[15],< 0.5 µM
same,IC50,[16],< 0.5 µM
same,IC50,[17],< 0.5 µM
same,IC50,[18],< 0.5 µM
same,sensitivity of glioma cell lines by LGC criteria,[19],sensitive (LGC<=30 nM)
same,IC50,[20],< 1 µM

# — US20090005398A1, “Methods For The Treatment of Central Nervous System Tumors” (priority 2007, published 2009)
